Data as given in PubChem BioAssay AID248 (DTP/NCI, 2004).
Values joined by “and” are separate entries in the source; they are usually repeats but may differ in a detail not shown here. Identical values can stand only once. Inconclusive results and toxic doses are left out.

System: L1210 leukemia ip in BDF1 mice, survival T/C
Assay: NCI In Vivo Anticancer Drug Screen. Data for tumor model L1210 Leukemia (intraperitoneal) in B6D2F1 (BDF1) mice
Details: higher = longer survival
Outline: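 Tumor cells were implanted, animals were treated, and survival was followed. The result divides the treated measurement by the vehicle-control measurement.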

[1] = endpoint: mean survival time, dose: 200.0 mg/kg/injection, schedule: Q04DX002 (ip), vehicle: Klucel (hydroxypropylcellulose) (HPC)
[2] = endpoint: mean survival time, dose: 100.0 mg/kg/injection, schedule: Q04DX003 (ip), vehicle: Klucel (hydroxypropylcellulose) (HPC)
[3] = endpoint: mean survival time, dose: 200.0 mg/kg/injection, schedule: Q04DX003 (ip), vehicle: Klucel (hydroxypropylcellulose) (HPC)
[4] = endpoint: mean survival time, dose: 100.0 mg/kg/injection, schedule: Q01DX001 (ip), vehicle: saline
[5] = endpoint: mean survival time, dose: 200.0 mg/kg/injection, schedule: Q01DX001 (ip), vehicle: saline
[6] = endpoint: mean survival time, dose: 400.0 mg/kg/injection, schedule: Q01DX001 (ip), vehicle: saline
[7] = endpoint: mean survival time, dose: 100.0 mg/kg/injection, schedule: Q01DX009 (ip), vehicle: Klucel (hydroxypropylcellulose) (HPC)
[8] = endpoint: mean survival time, dose: 100.0 mg/kg/injection, schedule: Q04DX003 (ip), vehicle: saline
[9] = endpoint: mean survival time, dose: 200.0 mg/kg/injection, schedule: Q01DX009 (ip), vehicle: Klucel (hydroxypropylcellulose) (HPC)
[10] = endpoint: mean survival time, dose: 200.0 mg/kg/injection, schedule: Q04DX003 (ip), vehicle: saline
[11] = endpoint: mean survival time, dose: 400.0 mg/kg/injection, schedule: Q01DX009 (ip), vehicle: Klucel (hydroxypropylcellulose) (HPC)
[12] = endpoint: mean survival time, dose: 400.0 mg/kg/injection, schedule: Q04DX003 (ip), vehicle: saline
[13] = endpoint: mean survival time, dose: 400.0 mg/kg/injection, schedule: Q04DX003 (ip), vehicle: Klucel (hydroxypropylcellulose) (HPC)
[14] = endpoint: mean survival time, dose: 50.0 mg/kg/injection, schedule: Q01DX001 (ip), vehicle: carboxymethylcellulose (CMC)
[15] = endpoint: mean survival time, dose: 100.0 mg/kg/injection, schedule: Q01DX001 (ip), vehicle: carboxymethylcellulose (CMC)
[16] = endpoint: mean survival time, dose: 200.0 mg/kg/injection, schedule: Q01DX001 (ip), vehicle: carboxymethylcellulose (CMC)
[17] = endpoint: mean survival time, dose: 400.0 mg/kg/injection, schedule: Q01DX001 (ip), vehicle: carboxymethylcellulose (CMC)

In the case of `Cc1cccc(C)c1NC(=O)N(CCCl)N=O`, the T/C (endpoint: mean survival time, dose: 5.7 mg/kg/injection, schedule: Q01DX Z (oral), vehicle: carboxymethylcellulose (CMC)) is reported as 150 % of control, the T/C (endpoint: mean survival time, dose: 13.0 mg/kg/injection, schedule: Q01DX Z (oral), vehicle: carboxymethylcellulose (CMC)) is reported as 206 % of control and the T/C (endpoint: mean survival time, dose: 16.0 mg/kg/injection, schedule: Q01DX001 (ip), vehicle: carboxymethylcellulose (CMC)) is reported as 192 % of control. The T/C (endpoint: mean survival time, dose: 20.0 mg/kg/injection, schedule: Q01DX Z (oral), vehicle: carboxymethylcellulose (CMC)) was 170 % of control, the T/C (endpoint: mean survival time, dose: 31.0 mg/kg/injection, schedule: Q01DX001 (ip), vehicle: carboxymethylcellulose (CMC)) was 308 % of control and the T/C (endpoint: mean survival time, dose: 62.0 mg/kg/injection, schedule: Q01DX001 (ip), vehicle: carboxymethylcellulose (CMC)) was 156 % of control. For the same compound, the T/C (endpoint: mean survival time, dose: 125.0 mg/kg/injection, schedule: Q01DX001 (ip), vehicle: carboxymethylcellulose (CMC)) was 156 % of control and the T/C (endpoint: mean survival time, dose: 187.0 mg/kg/injection, schedule: Q01DX001 (ip), vehicle: carboxymethylcellulose (CMC)) was 91 % of control.

`CN1CCN(CCCN2c3ccccc3Sc3ccc(Cl)cc32)CC1` was tested, and the T/C (endpoint: mean survival time, dose: 100.0 mg/kg/injection, schedule: Q04DX002 (ip), vehicle: Klucel (hydroxypropylcellulose) (HPC)) was 104 % of control, the T/C [1] was 90 % of control and the T/C (endpoint: median survival time, dose: 6.25 mg/kg/injection, schedule: Q06HX032 (oral), vehicle: Klucel (hydroxypropylcellulose) (HPC)) was 97 % of control. The T/C (endpoint: median survival time, dose: 6.25 mg/kg/injection, schedule: Q06HX044 (oral), vehicle: Klucel (hydroxypropylcellulose) (HPC)) was 91 % of control, the T/C (endpoint: median survival time, dose: 12.5 mg/kg/injection, schedule: Q06HX032 (oral), vehicle: Klucel (hydroxypropylcellulose) (HPC)) was 98 % of control and 107 % of control and the T/C (endpoint: median survival time, dose: 12.5 mg/kg/injection, schedule: Q06HX044 (oral), vehicle: Klucel (hydroxypropylcellulose) (HPC)) was 95 % of control and 96 % of control. The T/C (endpoint: median survival time, dose: 25.0 mg/kg/injection, schedule: Q06HX032 (oral), vehicle: Klucel (hydroxypropylcellulose) (HPC)) was 97 % of control and 116 % of control, the T/C (endpoint: median survival time, dose: 25.0 mg/kg/injection, schedule: Q06HX044 (oral), vehicle: Klucel (hydroxypropylcellulose) (HPC)) was 101 % of control and 76 % of control and the T/C (endpoint: median survival time, dose: 50.0 mg/kg/injection, schedule: Q06HX032 (oral), vehicle: Klucel (hydroxypropylcellulose) (HPC)) was 57 % of control and 69 % of control. For the same compound, the T/C (endpoint: median survival time, dose: 50.0 mg/kg/injection, schedule: Q06HX044 (oral), vehicle: Klucel (hydroxypropylcellulose) (HPC)) was 93 % of control and 35 % of control.

For `Cc1ccc(C)c(N2C(=O)C(=O)N(c3cc(C)ccc3C)P2(=O)N(CCCl)CCCl)c1`, the T/C (endpoint: mean survival time, dose: 18.0 mg/kg/injection, schedule: Q01DX Z (ip), vehicle: carboxymethylcellulose (CMC)) was 101 % of control, the T/C (endpoint: mean survival time, dose: 36.0 mg/kg/injection, schedule: Q01DX Z (ip), vehicle: carboxymethylcellulose (CMC)) was 90 % of control and the T/C (endpoint: mean survival time, dose: 72.0 mg/kg/injection, schedule: Q01DX Z (ip), vehicle: carboxymethylcellulose (CMC)) was 93 % of control. For the same compound, the T/C (endpoint: mean survival time, dose: 145.0 mg/kg/injection, schedule: Q01DX Z (ip), vehicle: carboxymethylcellulose (CMC)) was 96 % of control.

With `CCOC(=O)C(=Cc1ccc(C=C(C(=O)OCC)C(=O)OCC)cc1)C(=O)OCC` the T/C (endpoint: mean survival time, dose: 50.0 mg/kg/injection, schedule: Q04DX003 (ip), vehicle: Klucel (hydroxypropylcellulose) (HPC)) was 100 % of control, the T/C [2] was 100 % of control and the T/C [3] was 94 % of control.

For `CC(=O)CC(=O)NCCN1CCN(C(=O)CC(C)=O)CC1`, the T/C [4] was 93 % of control, the T/C [5] was 101 % of control and the T/C [6] was 98 % of control.

For `CC(=O)Nc1ccc(S(=O)(=O)Nc2cc(Cl)ccc2Cl)cc1`, the T/C (endpoint: mean survival time, dose: 100.0 mg/kg/injection, schedule: Q01DX009 (ip), vehicle: saline with Tween-80) was 103 % of control, the T/C (endpoint: mean survival time, dose: 200.0 mg/kg/injection, schedule: Q01DX009 (ip), vehicle: saline with Tween-80) was 102 % of control and the T/C (endpoint: mean survival time, dose: 400.0 mg/kg/injection, schedule: Q01DX009 (ip), vehicle: saline with Tween-80) was 97 % of control.

With `OCC1OC(n2ncc3c(Cl)ccnc32)C(O)C1O` (centres undefined) the T/C (endpoint: mean survival time, dose: 50.0 mg/kg/injection, schedule: Q01DX005 (ip), vehicle: other) was 91 % of control.

With `Nc1ccc2c(O)c(N=Nc3ccc4c(O)cc(S(=O)(=O)O)cc4c3)c(S(=O)(=O)O)cc2c1` the T/C [7] was 100 % of control, the T/C [8] was 96 % of control and the T/C [9] was 112 % of control. The T/C [10] was 100 % of control, the T/C [11] was 88 % of control and the T/C [12] was 94 % of control.

In the case of `O=C(Nc1ccccc1)N1CCN=C1C1CCCc2ccccc21` (centres undefined), the T/C (endpoint: mean survival time, dose: 100.0 mg/kg/injection, schedule: Q04DX002 (ip), vehicle: saline with Tween-80) is reported as 89 % of control, the T/C (endpoint: mean survival time, dose: 200.0 mg/kg/injection, schedule: Q04DX002 (ip), vehicle: saline with Tween-80) is reported as 89 % of control and the T/C (endpoint: mean survival time, dose: 400.0 mg/kg/injection, schedule: Q04DX002 (ip), vehicle: saline with Tween-80) is reported as 86 % of control.

With `Cc1ccccc1C(Cc1ccc(N2C(N)=NC(N)=NC2(C)C)cc1)C(=O)Nc1ccc(S(=O)(=O)F)cc1` (centres undefined) the T/C [2] was 98 % of control, the T/C [3] was 96 % of control and the T/C [13] was 88 % of control.

With `CN(C)c1ncnc2c1ncn2C1OC(CO)C(N(C)C)C1O` (centres undefined) the T/C (endpoint: mean survival time, dose: 100.0 mg/kg/injection, schedule: Q01DX005 (ip), vehicle: saline) was 103 % of control and the T/C (endpoint: mean survival time, dose: 200.0 mg/kg/injection, schedule: Q01DX005 (ip), vehicle: saline) was 95 % of control.

For `CCOc1ccc2c(ccc(/C=C\c3cc(C)c4cccnc4c3O)[n+]2C)c1`, the T/C (endpoint: mean survival time, dose: 25.0 mg/kg/injection, schedule: Q01DX001 (ip), vehicle: carboxymethylcellulose (CMC)) was 104 % of control, the T/C [14] was 109 % of control and the T/C [15] was 93 % of control.

For `O=C1C(=O)N2CCCCc3cccc1c32`, the T/C [14] was 96 % of control, the T/C [15] was 108 % of control and the T/C [16] was 100 % of control. The T/C [17] was 101 % of control.

For `Clc1ccc(C(c2ccc(Cl)cc2)c2ccccn2)cc1`, the T/C [7] was 92 % of control, the T/C [2] was 98 % of control and the T/C [9] was 97 % of control. The T/C [3] was 95 % of control and the T/C [13] was 97 % of control.

For `Cc1ccc(C(C)(O)CC(O)(C(F)(F)F)C(F)(F)F)cc1` (centres undefined), the T/C (endpoint: mean survival time, dose: 100.0 mg/kg/injection, schedule: Q01DX001 (ip), vehicle: Klucel (hydroxypropylcellulose) (HPC)) was 104 % of control, the T/C [7] was 99 % of control and the T/C (endpoint: mean survival time, dose: 200.0 mg/kg/injection, schedule: Q01DX001 (ip), vehicle: Klucel (hydroxypropylcellulose) (HPC)) was 106 % of control. For the same compound, the T/C [9] was 99 % of control, the T/C (endpoint: mean survival time, dose: 400.0 mg/kg/injection, schedule: Q01DX001 (ip), vehicle: Klucel (hydroxypropylcellulose) (HPC)) was 96 % of control and the T/C [11] was 98 % of control.

For `O=[N+]([O-])c1c(Cl)cc(Cl)c([N+](=O)[O-])c1-c1ccccc1`, the T/C [15] was 96 % of control, the T/C [16] was 96 % of control and the T/C [17] was 107 % of control.

With `O=C(N/N=C/c1c(Cl)cccc1Cl)C1CCCO1` (centres undefined) the T/C (endpoint: mean survival time, dose: 6.25 mg/kg/injection, schedule: Q01DX009 (ip), vehicle: Klucel (hydroxypropylcellulose) (HPC)) was 96 % of control, the T/C (endpoint: mean survival time, dose: 12.5 mg/kg/injection, schedule: Q01DX009 (ip), vehicle: Klucel (hydroxypropylcellulose) (HPC)) was 96 % of control and the T/C (endpoint: mean survival time, dose: 25.0 mg/kg/injection, schedule: Q01DX009 (ip), vehicle: Klucel (hydroxypropylcellulose) (HPC)) was 95 % of control and 91 % of control.

In the case of `N#CCCCc1ccc(C(=O)O)cc1`, the T/C [15] is reported as 95 % of control, the T/C [16] is reported as 100 % of control and the T/C [17] is reported as 97 % of control.

`O=C(NC(=O)c1ccc([N+](=O)[O-])cc1)Nc1ccccc1` was tested, and the T/C (endpoint: mean survival time, dose: 264.0 mg/kg/injection, schedule: Q01DX001 (ip), vehicle: carboxymethylcellulose (CMC)) was 92 % of control, the T/C [17] was 96 % of control and the T/C (endpoint: mean survival time, dose: 600.0 mg/kg/injection, schedule: Q01DX001 (ip), vehicle: carboxymethylcellulose (CMC)) was 88 % of control.

With `COc1ccc(OC)c(NC(=O)Nc2cc([N+](=O)[O-])ccc2C)c1` the T/C [1] was 92 % of control and the T/C (endpoint: mean survival time, dose: 400.0 mg/kg/injection, schedule: Q04DX002 (ip), vehicle: Klucel (hydroxypropylcellulose) (HPC)) was 100 % of control.

With `Cc1cc(N)ccc1/C=C/C(=O)O` the T/C [8] was 97 % of control, the T/C [10] was 98 % of control and the T/C [12] was 93 % of control.

For `Cc1cc(CC(=S)[S-])[n+](C)c(CC(=S)S)c1`, the T/C (endpoint: mean survival time, dose: 87.5 mg/kg/injection, schedule: Q01DX009 (ip), vehicle: Klucel (hydroxypropylcellulose) (HPC)) was 105 % of control and the T/C (endpoint: mean survival time, dose: 175.0 mg/kg/injection, schedule: Q01DX009 (ip), vehicle: Klucel (hydroxypropylcellulose) (HPC)) was 101 % of control.

For `COc1ccc(C)cc1NC(=O)C1CC1`, the T/C [7] was 103 % of control, the T/C [9] was 113 % of control and the T/C [11] was 104 % of control.

With `COC(=O)c1cn[nH]c1C(=O)OC` the T/C [4] was 100 % of control, the T/C [5] was 100 % of control and the T/C [6] was 96 % of control.
